Laboratory results as given in PubChem BioAssay (NCI).
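Dose response: 5 concentrations. Exposure: 48 h. Format: 96-well plates. Endpoint: linear interpolation; highest concentration if not reached. TGI marks complete inhibition of growth.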

Key:
Experiment in all cases: NCI-60 cell line screen, 48 h
[1] = system: NCI/ADR-RES ovarian
[2] = system: MDA-N
[3] = system: OVCAR-8 ovarian
[4] = system: HCC-2998 colon
[5] = system: U251 CNS
[6] = system: BT-549 breast
[7] = system: CAKI-1 renal
[8] = system: HS 578T breast
[9] = system: COLO 205 colon
[10] = system: NCI-H226 lung
[11] = system: MDA-MB-231 breast
[12] = system: IGROV1 ovarian
[13] = system: K-562 leukemia
[14] = system: SF-268 CNS
[15] = system: MDA-MB-435
[16] = system: HOP-62 NSCLC
[17] = system: SN12C renal
[18] = system: LOX IMVI melanoma
[19] = system: UACC-257 melanoma
[20] = system: HOP-92 NSCLC
[21] = system: UACC-62 melanoma
[22] = system: HCT-116 colon
[23] = system: SK-OV-3 ovarian
[24] = system: OVCAR-4 ovarian
[25] = system: HCT-15 colon
[26] = system: ACHN renal
[27] = system: RPMI-8226 leukemia
[28] = system: SF-539 CNS
[29] = system: SW-620 colon
[30] = system: OVCAR-5 ovarian
[31] = system: OVCAR-3 ovarian
[32] = system: TK-10 renal
[33] = system: T-47D breast
[34] = system: MOLT-4 leukemia
[35] = system: DU-145 prostate
[36] = system: NCI-H522 lung
[37] = system: SNB-19 CNS
[38] = system: NCI-H460 lung
[39] = system: SK-MEL-5 melanoma
[40] = system: NCI-H23 lung
[41] = system: SR leukemia
[42] = system: HT29 colon
[43] = system: KM12 colon
[44] = system: M14 melanoma
[45] = system: PC-3 prostate
[46] = system: RXF 393 renal
[47] = system: 786-0 renal
[48] = system: UO-31 renal
[49] = system: SF-295 CNS
[50] = system: CCRF-CEM leukemia
[51] = system: HL-60(TB) leukemia
[52] = system: EKVX NSCLC
[53] = system: MCF7 breast
[54] = system: MALME-3M melanoma
[55] = system: A549 NSCLC
[56] = system: SNB-75 CNS
[57] = system: SK-MEL-28 melanoma
[58] = system: SK-MEL-2 melanoma

With `Cc1ccc(NC(=O)C23CC4CC(CC(C4)C2)C3)c(C(=O)NNC(=O)c2ccc(Cl)cc2)c1` the TGI [1] was 61.1 µM, the TGI [2] was 52.1 µM and the TGI [3] was > 100 µM. The TGI [4] was 30.2 µM, the TGI [5] was 37.1 µM and the TGI [6] was > 100 µM. For the same compound, the TGI [7] was 73.8 µM, the TGI [8] was 33.8 µM and the TGI [9] was > 100 µM. It also gave a TGI [10] of 62.6 µM, a TGI [11] of 50.3 µM and a TGI [12] of 18.2 µM. The TGI [13] was 95 µM, the TGI [14] was > 100 µM and the TGI [15] was 37.4 µM. For the same compound, the TGI [16] was 49.6 µM, the TGI [17] was > 100 µM and the TGI [18] was 35.3 µM. For the same compound, the TGI [19] was 9.53 µM, the TGI [20] was 33.5 µM and the TGI [21] was 53.2 µM. The TGI [22] was > 100 µM, the TGI [23] was 39 µM and the TGI [24] was 65.8 µM. It also gave a TGI [25] of 35.7 µM, a TGI [26] of 37.8 µM and a TGI [27] of 41.5 µM. For the same compound, the TGI [28] was 49.5 µM, the TGI [29] was > 100 µM and the TGI [30] was 61.3 µM. The TGI [31] was 66.9 µM, the TGI [32] was 41.5 µM and the TGI [33] was > 100 µM. For the same compound, the TGI [34] was 62.3 µM, the TGI [35] was > 100 µM and the TGI [36] was 30.4 µM. For the same compound, the TGI [37] was 8.91 µM, the TGI [38] was 69.2 µM and the TGI [39] was 42.6 µM. For the same compound, the TGI [40] was 38.8 µM, the TGI [41] was 30.1 µM and the TGI [42] was 72.9 µM. For the same compound, the TGI [43] was 90.9 µM, the TGI [44] was > 100 µM and the TGI [45] was 69.5 µM. The TGI [46] was 39.8 µM, the TGI [47] was 59 µM and the TGI [48] was 37 µM. The TGI [49] was 66.5 µM, the TGI [50] was 55.2 µM and the TGI [51] was 55.5 µM. For the same compound, the TGI [52] was 68 µM, the TGI [53] was 59.7 µM and the TGI [54] was 59.4 µM. The TGI [55] was 46 µM.
`COc1cc(C)cc(C(=O)OCc2ccccc2)c1C1=C(Cl)C(=O)C(Cl)=CC1=O` was tested, and the TGI [56] was > 10 µM, the TGI [1] was > 10 µM and the TGI [2] was > 10 µM. For the same compound, the TGI [3] was > 10 µM, the TGI [4] was > 10 µM and the TGI [5] was > 10 µM. For the same compound, the TGI [6] was > 10 µM, the TGI [7] was > 10 µM and the TGI [8] was > 10 µM. For the same compound, the TGI [9] was > 10 µM, the TGI [10] was > 10 µM and the TGI [11] was > 10 µM. The TGI [12] was > 10 µM, the TGI [13] was 5.37 µM and the TGI [14] was > 10 µM. The TGI [15] was > 10 µM, the TGI [16] was > 10 µM and the TGI [17] was > 10 µM. For the same compound, the TGI [18] was > 10 µM, the TGI [19] was > 10 µM and the TGI [57] was > 10 µM. The TGI [20] was 9.92 µM, the TGI [21] was > 10 µM and the TGI [22] was > 10 µM. The TGI [23] was > 10 µM, the TGI [24] was > 9 µM and the TGI [25] was > 10 µM. For the same compound, the TGI [26] was > 10 µM, the TGI [27] was > 10 µM and the TGI [28] was > 10 µM. For the same compound, the TGI [29] was > 10 µM, the TGI [30] was > 10 µM and the TGI [31] was > 10 µM. The TGI [32] was > 10 µM, the TGI [33] was > 10 µM and the TGI [34] was 5.29 µM. The TGI [35] was > 10 µM, the TGI [36] was 3.69 µM and the TGI [37] was > 10 µM. For the same compound, the TGI [38] was > 10 µM, the TGI [39] was > 10 µM and the TGI [40] was > 10 µM. The TGI [58] was > 10 µM, the TGI [41] was > 7.85 µM and the TGI [42] was > 10 µM. The TGI [43] was > 10 µM, the TGI [44] was > 10 µM and the TGI [45] was > 10 µM. The TGI [46] was > 10 µM, the TGI [47] was > 10 µM and the TGI [48] was > 10 µM. The TGI [49] was > 10 µM, the TGI [50] was 4.76 µM and the TGI [51] was 2.55 µM. For the same compound, the TGI [52] was > 10 µM, the TGI [53] was > 10 µM and the TGI [54] was > 10 µM. The TGI [55] was > 10 µM.
